Reference: PubChem BioAssay (NCI)
“And” between values parts separate entries of the source, which are not always exact repeats. Equal values may be shown once.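 Protocol summary: plate cells (96-well), add compound at 5 concentrations, incubate 48 h, interpolate endpoints linearly. Here, GI50 denotes the concentration required for 50% inhibition of growth. The concentration for full growth arrest is given as TGI.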

Key:
Assay in all cases: NCI-60 cell line screen, 48 h
MDA-N = tested on: MDA-N
SK-MEL-28 melanoma = tested on: SK-MEL-28 melanoma
RPMI-8226 leukemia = tested on: RPMI-8226 leukemia
LOX IMVI melanoma = tested on: LOX IMVI melanoma
UACC-62 melanoma = tested on: UACC-62 melanoma
SK-MEL-5 melanoma = tested on: SK-MEL-5 melanoma
M14 melanoma = tested on: M14 melanoma
MDA-MB-231 breast = tested on: MDA-MB-231 breast
HOP-62 NSCLC = tested on: HOP-62 NSCLC
SF-295 CNS = tested on: SF-295 CNS
SR leukemia = tested on: SR leukemia

| Structure (SMILES) | TGI (MDA-N) [µM] | TGI (SK-MEL-28 melanoma) [µM] | TGI (RPMI-8226 leukemia) | TGI (LOX IMVI melanoma) | TGI (UACC-62 melanoma) | TGI (SK-MEL-5 melanoma) [µM] | TGI (M14 melanoma) [µM] | TGI (MDA-MB-231 breast) [µM] | TGI (HOP-62 NSCLC) [µM] | TGI (SF-295 CNS) | GI50 (SK-MEL-28 melanoma) [µM] | GI50 (RPMI-8226 leukemia) [µM] | GI50 (LOX IMVI melanoma) [µM] | GI50 (UACC-62 melanoma) [µM] | GI50 (SK-MEL-5 melanoma) [µM] | GI50 (M14 melanoma) [µM] | GI50 (MDA-MB-231 breast) [µM] | GI50 (HOP-62 NSCLC) [µM] | GI50 (SF-295 CNS) [µM] | TGI (SR leukemia) [µM] |
| --- | --- | --- | --- | --- | --- | --- | --- | --- | --- | --- | --- | --- | --- | --- | --- | --- | --- | --- | --- | --- |
| O=c1[nH]c(=S)[nH]c2c1C(c1ccc([N+](=O)[O-])cc1)c1c([nH]c(=S)[nH]c1=O)O2 | > 100 | > 100 | > 100 µM | > 100 µM | > 100 µM | > 100 | > 100 | > 100 | > 100 | > 100 µM | – | – | – | – | – | – | – | – | – | – |
| Cc1cc(Nc2ccc(S(=O)(=O)O)c3cc(S(=O)(=O)O)cc(S(=O)(=O)O)c23)c2ccccc2n1 | > 100 | > 100 | > 100 µM | > 100 µM | > 100 µM | > 100 | > 100 | > 100 | > 100 | > 100 µM | – | – | – | – | – | – | – | – | – | – |
| c1ccc2c(c1)Cn1c-2nc2ccccc21 | > 100 | > 100 | > 100 µM | > 100 µM | > 100 µM | > 100 | > 100 | > 100 | > 100 | > 100 µM | – | – | – | – | – | – | – | – | – | – |
| COc1ccc2cc1Oc1ccc(cc1)C[C@H]1c3cc(c(OC)cc3CCN1C)Oc1c(O)c(OC)cc3c1[C@H](C2)N(C)CC3 | – | 48.3 | 75.2 µM | 26.7 µM | 44.7 µM | 29.4 | – | – | 65.7 | 39.7 µM | – | – | – | – | – | – | – | – | – | – |
| COc1ccc(CN2C(=O)/C(=C\c3cc(OC)c(OC)c(OC)c3)c3ccccc32)cc1 | – | 3.74 | 7.57 µM | 3.3 µM | 3.51 µM | 6.63 | 5.48 | > 100 | 4.98 | 35.8 µM | 1.82 | 2.47 | 1.76 | 1.6 | 2.51 | 2.41 | 3.34 | 2.42 | 3.79 | – |
| NC(=O)C(=Cn1c(=S)[nH]c2ccc([N+](=O)[O-])cc21)C(N)=O | > 100 | > 100 | – | > 100 µM | > 100 µM | > 100 | > 100 | > 100 | > 100 | > 100 µM | – | – | – | – | – | – | – | – | – | – |
| C(=C(c1ccc(OC2CCCCO2)cc1)c1ccc(OC2CCCCO2)cc1)c1ccccc1 (stereo not drawn) | 1.75 | 2.41 | – | 1.14 µM | 1.98 µM | 1.78 | 2 | 1.52 | 2.3 | 2.51 µM | – | – | – | – | – | – | – | – | – | – |
| C#CCn1c(=O)c2ccccc2n(CC#C)c1=O | > 10 | > 10 | > 10 µM | > 10 µM | – | > 10 | > 10 | > 10 | > 10 | > 10 µM | – | – | – | – | – | – | – | – | – | – |
| COC(=O)[C@@H](O)[C@](O)(CCC(C)C)C(=O)O[C@@H]1C(OC)=C[C@]23CCCN2CCc2cc4c(cc2[C@H]13)OCO4 | – | 2.78 | 6.06 µM | 5.21 µM | 29.4 µM | 5.99 | – | – | 4.75 | 5.68 µM | – | – | – | – | – | – | – | – | – | – |
| CC(=O)N(C(=O)CC(=O)N1N=C(c2ccccc2)C(N=Nc2ccccc2[N+](=O)[O-])C1=O)c1ccc(Cl)cc1 (stereo not drawn) | > 10 | > 10 | > 10 µM | > 10 µM | > 10 µM | > 10 | – | > 10 | > 10 | > 10 µM | – | – | – | – | – | – | – | – | – | – |
| CCC(=O)NCC1CCCN2CCCCC12 (stereo not drawn) | > 100 | > 100 | > 100 µM | > 100 µM | > 100 µM | > 100 | – | > 100 | – | > 100 µM | – | – | – | – | – | – | – | – | – | – |
| COc1cccc(Nc2nc(-c3cccs3)nc3cc(OC)c(OC)cc23)c1 | – | > 100 | 27.3 µM | – | 39.8 µM | 44.5 | 82.2 | 53.8 | 62.7 | 53.1 µM | – | – | – | – | – | – | – | – | – | 76.9 |
| CC1CN(C)c2ccccc2N=C1NN (stereo not drawn) | > 100 | > 100 | > 100 µM | – | > 100 µM | > 100 | > 100 | > 100 | > 100 | > 100 µM | – | – | – | – | – | – | – | – | – | – |
| O=C(Cc1ccc(O)c(O)c1)NCc1c[nH]c2ccccc12 | – | > 100 | > 100 µM | – | – | > 100 | > 100 | – | > 100 | > 100 µM | – | – | – | – | – | – | – | – | – | – |
| CCOP(=O)(OCC)C(F)(F)c1ccc(CC(NC(=O)OC(C)(C)C)C(=O)O)cc1 (stereo not drawn) | > 10 | > 10 | – | > 10 µM | > 10 µM | > 10 | > 10 | > 10 | > 10 | > 10 µM | – | – | – | – | – | – | – | – | – | – |
| COc1ccc2[nH]cc(/C=C(/C)c3ccncc3)c2c1 | – | > 100 | 16.5 µM and > 100 µM | 28.8 µM and 18.9 µM | 29.8 µM and 52.9 µM | 9.24 | – | – | 53.8 | 12.1 µM and 32.8 µM | 9.02 | 2.7 | – | – | – | – | – | – | 3.63 | – |
| Cc1cc(C)nc(NS(=O)(=O)c2ccc(NC(=O)c3ccc4nc5ccccc5c(Nc5ccc(S(N)(=O)=O)cc5)c4c3)cc2)n1 | – | > 100 | > 100 µM | > 100 µM | > 100 µM | > 100 | > 100 | > 100 | > 100 | > 100 µM | – | – | – | – | – | – | – | – | – | > 100 |
| O=C(NCc1ccccc1)c1n[nH][nH]c1=O | > 100 | > 100 | > 100 µM | – | > 100 µM | > 100 | > 100 | > 100 | > 100 | > 100 µM | – | – | – | – | – | – | – | – | – | – |
